Laboratory results from patent publication US20210221866A1, “PROTEASE-RESISTANT LIPIDATED GLP-1 ANALOGS” (MEDIMMUNE LIMITED, priority 2015, published 2021).
Read-outs that look alike come from different tables or passages of the source. Numbered stars: 1 amine (or outer) side, 2 acyl side, 3 side chain; on linkers, the order of the positions; unused ones are H or OH. Square brackets hold non-standard residues; d marks the D form. Side chains are listed from the residue outwards. Peptide text beside a SMILES is read from it. * marks the point of attachment. γGlu = O=C(O)[C@H](CCC(=O)[*:2])N[*:1]; αMeF = C[C@](N)(Cc1ccccc1)C(=O)O; αMeK = C[C@](N)(CCCCN)C(=O)O; Lauroyl = CCCCCCCCCCCC(=O)*; AEEA = NCCOCCOCC(=O)O; Aib = CC(C)(N)C(=O)O

Target: T1, human GLP-1 receptor (GLP-1R) (Homo sapiens, UniProt P43220)
T1 construct: expressed in transfected cells; host or cells: HEK293 cells or CHO cells
Assay: cAMP assay, human GLP-1R cells
Type: cell-based
Conditions: mean of n1 and n2
Protocol: Sample dilutions are made in duplicate.
A frozen cryo-vial of cells expressing the receptor of interest is thawed rapidly in a water-bath, transferred to pre-warmed assay buffer and spun at 240×g for 5 minutes. Cells are re-suspended in assay buffer at a batch-dependent optimized concentration (e.g. hGCGR cells at 2×10^5 cells/ml, hGLP-1R and hGIPR cells at 1×10^5 cells/ml).
To this, 5 μL cell suspension is added and the plates incubated at room temperature for 30 minutes.
cAMP levels are measured using a commercially available cAMP dynamic 2 HTRF kit (Cisbio, Cat #62AM4PEJ), following the two step protocol as per manufacturer's recommendations. In brief; anti-cAMP cryptate (donor fluorophore) and cAMP-d2 (acceptor fluorophore) are made up separately by diluting each 1/20 in conjugate & lysis buffer provided in the kit. 5 μL anti-cAMP cryptate is added to wells of the assay plate, and 5 μL cAMP-d2 is added to wells except non-specific binding (NSB) wells, to which conjugate and lysis buffer are added. […] EC50 values of the synthetic peptides determined in cAMP assays are then determined.
Data is transformed to % Delta F as described in the manufacturer's guidelines and analyzed by 4-parameter logistic fit to determine EC50 values. […] To compare the balance of activities at the GLP-1R and GCGR between different peptides and across different conditions, these can be correlated, where the EC50's are related to those of comparator peptides.

[1] = cAMP activity, read-out: Mean pM GLP-1R

T1 sequence (P43220 24-463): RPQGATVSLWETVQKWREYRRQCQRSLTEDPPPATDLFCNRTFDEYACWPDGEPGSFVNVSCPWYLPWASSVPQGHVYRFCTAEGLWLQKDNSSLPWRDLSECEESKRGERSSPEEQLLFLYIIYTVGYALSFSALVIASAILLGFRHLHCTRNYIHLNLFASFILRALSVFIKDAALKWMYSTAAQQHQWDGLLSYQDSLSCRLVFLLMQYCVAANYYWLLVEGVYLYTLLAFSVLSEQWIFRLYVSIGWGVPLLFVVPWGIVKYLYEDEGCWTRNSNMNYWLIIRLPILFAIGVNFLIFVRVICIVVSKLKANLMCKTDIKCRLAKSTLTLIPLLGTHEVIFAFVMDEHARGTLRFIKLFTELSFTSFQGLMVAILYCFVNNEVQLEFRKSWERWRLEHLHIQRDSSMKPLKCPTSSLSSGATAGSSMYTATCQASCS

| EC50 [1] | EC50 (Table 11, tris-lipidated peptides, read-out: Primary assay EC50 Mean pM GLP-1R) | SMILES |
| --- | --- | --- |
| 5.1 pM |  | CC[C@H](C)[C@H](NC(=O)[C@H](Cc1ccccc1)NC(=O)[C@H](CCC(=O)O)NC(=O)[C@H](CCCCN)NC(=O)[C@H](C)NC(=O)[C@H](C)NC(=O)[C@H](CCC(N)=O)NC(=O)CNC(=O)[C@H](CCC(=O)O)NC(=O)[C@H](CC(C)C)NC(=O)[C@H](Cc1ccc(O)cc1)NC(=O)[C@H](CO)NC(=O)[C@H](CO)NC(=O)[C@@H](NC(=O)[C@H](CC(=O)O)NC(=O)[C@H](CO)NC(=O)[C@@H](NC(=O)[C@H](Cc1ccccc1)NC(=O)[C@@H](NC(=O)CNC(=O)[C@H](CCC(=O)O)NC(=O)C(C)(C)NC(=O)[C@@H](N)Cc1c[nH]cn1)[C@@H](C)O)[C@@H](C)O)C(C)C)C(=O)N[C@@H](C)C(=O)N[C@@H](Cc1c[nH]c2ccccc12)C(=O)N[C@@H](CC(C)C)C(=O)N[C@H](C(=O)N[C@@H](CCCCN)C(=O)NCC(=O)N[C@@H](CCCNC(=N)N)C(=O)N[C@@H](CCCCNC(=O)COCCOCCNC(=O)COCCOCCNC(=O)CC[C@H](NC(=O)CCCCCCCCCCCCCCCCC(=O)O)C(=O)O)C(N)=O)C(C)C [compound 6] |
|  | 287 pM | CCCCCCCCCCCC(=O)N[C@@H](CCC(=O)NCCOCCOCC(=O)NCCOCCOCC(=O)NCCCC[C@H](NC(=O)CNC(=O)[C@H](CCC(=O)O)NC(=O)[C@H](CC(C)C)NC(=O)[C@H](Cc1ccc(O)cc1)NC(=O)[C@H](CO)NC(=O)[C@H](CO)NC(=O)[C@H](CCCCNC(=O)COCCOCCNC(=O)COCCOCCNC(=O)CC[C@H](NC(=O)CCCCCCCCCCC)C(=O)O)NC(=O)[C@H](CC(=O)O)NC(=O)[C@H](CO)NC(=O)[C@@H](NC(=O)[C@](C)(Cc1ccccc1)NC(=O)[C@H](CO)NC(=O)CNC(=O)[C@H](CCC(=O)O)NC(=O)C(C)(C)NC(=O)[C@@H](N)Cc1c[nH]cn1)[C@@H](C)O)C(=O)N[C@@H](C)C(=O)N[C@@H](C)C(=O)N[C@@](C)(CCCCN)C(=O)N[C@@H](CCC(=O)O)C(=O)N[C@@H](Cc1ccccc1)C(=O)N[C@H](C(=O)N[C@@H](C)C(=O)N[C@@H](Cc1ccccc1)C(=O)N[C@@H](CCCCNC(=O)COCCOCCNC(=O)COCCOCCNC(=O)CC[C@H](NC(=O)CCCCCCCCCCC)C(=O)O)C(=O)N[C@H](C(=O)N[C@@H](CCC(=O)O)C(=O)NCC(=O)NCC(N)=O)C(C)C)[C@@H](C)CC)C(=O)O [compound 472] (H-H[Aib]EGS[αMeF]TSDK([AEEA-AEEA-γGlu-Lauroyl])SSYLEGK([AEEA-AEEA-γGlu-Lauroyl])AA[αMeK]EFIAFK([AEEA-AEEA-γGlu-Lauroyl])VEGG-NH2; N-terminus assumed) |
| 1200 pM |  | CC[C@H](C)[C@H](NC(=O)[C@](C)(Cc1ccccc1)NC(=O)[C@H](CCC(=O)O)NC(=O)[C@](C)(CCCCN)NC(=O)[C@H](C)NC(=O)[C@H](C)NC(=O)[C@H](CCC(=O)O)NC(=O)CNC(=O)[C@H](CCC(=O)O)NC(=O)[C@H](CC(C)C)NC(=O)[C@](C)(Cc1ccccc1)NC(=O)[C@H](CO)NC(=O)[C@H](CO)NC(=O)[C@@H](NC(=O)[C@H](CCC(=O)O)NC(=O)[C@H](CO)NC(=O)[C@H](CO)NC(=O)[C@](C)(Cc1ccccc1)NC(=O)[C@H](CO)NC(=O)CNC(=O)[C@H](CCC(=O)O)NC(=O)C(C)(C)NC(=O)[C@@H](N)Cc1c[nH]cn1)C(C)C)C(=O)N[C@@H](C)C(=O)N[C@@](C)(Cc1ccccc1)C(=O)N[C@H](C(=O)N[C@H](C(=O)N[C@@](C)(CCCCN)C(=O)NCC(=O)NCC(N)=O)C(C)C)C(C)C [compound 9] (H-H[Aib]EGS[αMeF]SSEVSS[αMeF]LEGEAA[αMeK]E[αMeF]IA[αMeF]VV[αMeK]GG-NH2; N-terminus assumed) |
